Results from patent publication US4218395A, “Ureylene naphthalene sulfonic acids” (American Cyanamid Company, priority 1978, dated 1980).
Structures can show the parent of a compound that is named as a salt.

What was measured:
complement system = conditions: British Journal of Experimental Pathology, 33, 327-339 (1952); Clin. Exp. Immunol., 10, 127-138 (1972); cited from earlier work
human C1 = target: T1, human C1 (Homo sapiens, UniProt P09871); experiment: Test, Code 026 (C1 inhibitor); format: biochemical; conditions: activity in wells, twofold serial dilution assay; higher well number indicates higher activity
T1 construct: hemolytic test of fluid-phase C2 destruction in presence of C4
T1 sequence (P09871 16-688): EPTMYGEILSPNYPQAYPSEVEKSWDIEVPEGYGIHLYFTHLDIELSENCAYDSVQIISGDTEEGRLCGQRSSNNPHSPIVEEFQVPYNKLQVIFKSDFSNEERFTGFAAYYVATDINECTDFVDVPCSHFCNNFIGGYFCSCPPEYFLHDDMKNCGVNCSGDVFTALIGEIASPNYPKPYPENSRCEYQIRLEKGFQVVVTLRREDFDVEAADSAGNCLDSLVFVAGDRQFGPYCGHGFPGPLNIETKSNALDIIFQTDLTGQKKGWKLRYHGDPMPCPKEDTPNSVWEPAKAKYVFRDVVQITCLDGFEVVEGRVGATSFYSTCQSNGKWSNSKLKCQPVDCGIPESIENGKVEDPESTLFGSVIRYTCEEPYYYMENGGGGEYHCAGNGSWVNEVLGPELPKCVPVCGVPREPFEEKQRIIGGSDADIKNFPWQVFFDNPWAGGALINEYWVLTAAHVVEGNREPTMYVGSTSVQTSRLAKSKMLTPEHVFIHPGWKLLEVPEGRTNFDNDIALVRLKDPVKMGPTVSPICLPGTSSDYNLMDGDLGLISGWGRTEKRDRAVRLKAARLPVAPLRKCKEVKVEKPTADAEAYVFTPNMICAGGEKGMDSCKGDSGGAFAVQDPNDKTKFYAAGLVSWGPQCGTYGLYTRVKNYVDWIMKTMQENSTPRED
T1 sequence (P00736 18-705 partner): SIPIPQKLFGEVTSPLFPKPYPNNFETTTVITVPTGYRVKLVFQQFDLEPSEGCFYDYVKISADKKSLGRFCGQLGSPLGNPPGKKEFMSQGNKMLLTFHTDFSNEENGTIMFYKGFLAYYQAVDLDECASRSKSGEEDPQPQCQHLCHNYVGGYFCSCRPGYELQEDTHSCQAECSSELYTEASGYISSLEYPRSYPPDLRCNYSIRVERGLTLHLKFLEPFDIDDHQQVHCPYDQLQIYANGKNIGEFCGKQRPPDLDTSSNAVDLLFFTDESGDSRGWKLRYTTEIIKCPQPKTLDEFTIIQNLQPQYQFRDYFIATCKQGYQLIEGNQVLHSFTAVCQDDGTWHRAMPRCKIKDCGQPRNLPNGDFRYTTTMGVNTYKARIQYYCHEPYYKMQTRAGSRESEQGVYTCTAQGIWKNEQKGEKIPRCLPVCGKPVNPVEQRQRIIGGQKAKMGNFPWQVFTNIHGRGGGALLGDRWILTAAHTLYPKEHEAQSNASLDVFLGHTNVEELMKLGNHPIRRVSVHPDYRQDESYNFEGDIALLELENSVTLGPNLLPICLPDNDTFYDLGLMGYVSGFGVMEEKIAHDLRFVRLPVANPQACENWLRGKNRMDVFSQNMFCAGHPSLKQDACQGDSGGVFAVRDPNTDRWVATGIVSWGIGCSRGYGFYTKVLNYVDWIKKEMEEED
T1 sequence (P02745 23-245 partner): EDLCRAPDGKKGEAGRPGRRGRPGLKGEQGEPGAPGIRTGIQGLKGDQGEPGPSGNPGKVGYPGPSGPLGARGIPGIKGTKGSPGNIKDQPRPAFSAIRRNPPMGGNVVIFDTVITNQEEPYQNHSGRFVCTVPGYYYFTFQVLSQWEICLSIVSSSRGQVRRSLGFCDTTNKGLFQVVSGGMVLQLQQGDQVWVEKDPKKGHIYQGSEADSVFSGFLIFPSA
T1 sequence (P02746 28-253 partner): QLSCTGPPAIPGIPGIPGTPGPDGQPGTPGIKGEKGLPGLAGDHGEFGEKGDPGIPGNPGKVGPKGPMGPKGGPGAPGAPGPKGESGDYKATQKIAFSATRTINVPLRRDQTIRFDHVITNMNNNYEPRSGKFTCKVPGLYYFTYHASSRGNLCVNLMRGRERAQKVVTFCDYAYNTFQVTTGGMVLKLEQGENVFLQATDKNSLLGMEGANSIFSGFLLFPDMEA
T1 sequence (P02747 29-245 partner): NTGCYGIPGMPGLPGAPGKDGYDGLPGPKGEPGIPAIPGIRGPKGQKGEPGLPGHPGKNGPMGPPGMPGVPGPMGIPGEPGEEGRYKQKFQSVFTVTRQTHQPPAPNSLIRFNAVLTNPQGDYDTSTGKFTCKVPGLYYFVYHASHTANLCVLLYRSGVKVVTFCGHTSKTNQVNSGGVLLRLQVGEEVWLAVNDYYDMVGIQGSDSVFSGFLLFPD
Excerpt: (§1) An active inhibitor protects C2 from C1 and C4; (ii) Test, Code 035 (C3-C9 inhibitor)-This test determines the ability of the late components of human complement (C3-C9) to lyse EAC 142 in the presence of appropriate dilutions of the test compound. An active inhibitor protects EAC 142 from lysis by human C3-C9; (iii) Test, Code 036 (C-Shunt inhibitor)--In this test human erythrocytes rendered fragile are lysed in autologous serum via the shunt pathway activated by cobra venom factor in the presence of appropriate dilutions of the test compound. Inhibition of the shunt pathway results in failure of lysis; (iv) Forssman Vasculitis Test--Here, the well known complement dependent lesion, Forssman vasculitis, is produced in guinea pigs by intradermal injection of rabbit anti-Forssman antiserum. The lesion is measured in terms of diameter, edema and hemorrhage and the extent to which a combined index of these is inhibited by prior intraperitoneal injection of the test compound at 200 mg/kg is then reported, unless otherwise stated; (v) Forssman Shock Test--Lethal shock is produced in guinea pigs by an i.v. injection of anti-Forssman antiserum and the harmonic mean death time of treated guinea pigs is compared with that of simultaneous controls; (vi) Complement Level Reduction Test--In this test, the above dosed guinea pigs, or others, are bled for serum and the complement level is determined in undiluted serum by the capillary tube method of U.S. Pat. No. 3,876,376 and compared to undosed control guinea pigs; and (vii) Cap 50 Test--Here, appropriate amounts of the test compound are added to a pool of guinea pig serum in vitro, after which the undiluted serum capillary tube assay referred to above is run. The concentration of compound inhibiting 50% is reported.
(§2) With reference to Table I, guinea pigs weighing about 300 g were dosed intravenously (i.v.) or intraperitoneally (i.p.) with 200 mg/kg of the test compound dissolved in saline and adjusted to pH 7-8. […] Percent inhibition was calculated by comparison with simultaneous controls. […]

[1] = tested on: late components of human complement (C3-C9); experiment: Test, Code 035 (C3-C9 inhibitor): lysis of EAC 142; format: cell-based; conditions: activity in wells, twofold serial dilution assay; higher well number indicates higher activity
Excerpt: as §1, §2

shunt pathway = experiment: Test, Code 036 (C-Shunt inhibitor): lysis of human erythrocytes via shunt pathway activated by cobra venom factor; format: cell-based; conditions: activity in wells, twofold serial dilution assay; higher well number indicates higher activity
Excerpt: as §1, §2

whole complement = experiment: In vivo complement inhibition in dosed guinea pigs (whole complement, capillary tube assay); conditions: i.p., 200 mg/kg
Excerpt: as §1
With reference to Table I, guinea pigs weighing about 300 g were dosed intravenously (i.v.) or intraperitoneally (i.p.) with 200 mg/kg of the test compound dissolved in saline and adjusted to pH 7-8. One hour after dosing, the guinea pigs were decapitated, blood was collected and the serum separated. The serum was tested for whole complement using the capillary tube assay. Percent inhibition was calculated by comparison with simultaneous controls. The results appear in Table I together with results of tests, code 026, 035, 036, Cap 50, % inhibition and Forssman shock.

human serum complement [2] = conditions: as judged by the reduction in total hemolytic complement activity, Pathologie Biologie, 25, 33-36 (1977); cited from earlier work
human serum complement [3] = conditions: as judged by the reduction in total hemolytic complement activity, Pathologie Biologie, 25, 33-36 (1977); cited from earlier work; remark: listed apart in the source
[4] = tested on: hereditary angioneurotic edema; conditions: The New England Journal of Medicine, 286, 808-812 (1972); cited from earlier work

| Molecule | effect on the complement system (complement system) | C1 026* Wells (human C1) | C-Late 035* Wells [1] | Shunt Inhibition 036* Wells (shunt pathway) | In Vivo Activity (Guinea Pig) % Inhibition, Intraperitoneal, 30 minutes (whole complement) | In Vivo Activity (Guinea Pig) % Inhibition, Intraperitoneal, 60 minutes (whole complement) | In Vivo Activity (Guinea Pig) % Inhibition, Intraperitoneal, 120 minutes (whole complement) | treatment of hereditary angioneurotic edema [4] | further results |
| --- | --- | --- | --- | --- | --- | --- | --- | --- | --- |
| Nc1ccc2cc(S(=O)(=O)O)cc(O)c2c1N=Nc1ccc(NC(=O)Nc2ccc(N=Nc3c(N)ccc4cc(S(=O)(=O)O)cc(O)c34)c(S(=O)(=O)O)c2)cc1S(=O)(=O)O [chlorazol fast pink, 3,3'-ureylenebis-[6-(2-amino-8-hydroxy-6-sulfo-1-naphthylazo)]benzenesulfonic acid, tetrasodium salt] | anticomplementary effect |  |  |  |  |  |  |  |  |
| Nc1cc(C(=O)Nc2cc(C(=O)O)cc(C(=O)Nc3ccc(S(=O)(=O)O)c4cc(S(=O)(=O)O)cc(S(=O)(=O)O)c34)c2)cc(C(=O)Nc2cc(C(=O)O)cc(C(=O)Nc3ccc(S(=O)(=O)O)c4cc(S(=O)(=O)O)cc(S(=O)(=O)O)c34)c2)c1 [3,3'-[5-Amino-m-phenylenebis(carbonylimino)]bis{5-[4,6,8-trisulfo-1-naphthyl)carbamoyl]}benzoic acid hexasodium salt] |  | +4 Wells | +2 Wells | +2 Wells | -40% | -61% | -61% |  |  |
| heparin | anticomplementary effect |  |  |  |  |  |  |  |  |
| pentosan-poly-sulfoester |  |  |  |  |  |  |  |  | anticomplementary activity on human serum in vitro (human serum complement [2]): anticomplementary activity; anticomplementary activity on human serum in vivo (human serum complement [3]): anticomplementary activity |
| NCCCCCC(=O)O [epsilon-aminocaproic acid] |  |  |  |  |  |  |  | used with success |  |
| Cc1ccc(C(=O)Nc2ccc(S(=O)(=O)O)c3cc(S(=O)(=O)O)cc(S(=O)(=O)O)c23)cc1NC(=O)c1cc(NC(=O)Nc2cc(C(=O)Nc3cc(C(=O)Nc4ccc(S(=O)(=O)O)c5cc(S(=O)(=O)O)cc(S(=O)(=O)O)c45)ccc3C)cc(C(=O)Nc3cc(C(=O)Nc4ccc(S(=O)(=O)O)c5cc(S(=O)(=O)O)cc(S(=O)(=O)O)c45)ccc3C)c2)cc(C(=O)Nc2cc(C(=O)Nc3ccc(S(=O)(=O)O)c4cc(S(=O)(=O)O)cc(S(=O)(=O)O)c34)ccc2C)c1 [8,8',8",8'"-{Ureylenebis{s-phenenylbis[carbonylimino(4-methyl-3,1-phenylene)carbonylimino]}}tetra-1,3,5-naphthalenetrisulfonic acid dodecasodium salt] |  | +6 Wells | +3 Wells | +4 Wells | -62% | -84% | -95% |  |  |
| O=C(Nc1cc(C(=O)Nc2cc(C(=O)O)cc(C(=O)Nc3ccc(S(=O)(=O)O)c4cc(S(=O)(=O)O)cc(S(=O)(=O)O)c34)c2)cc(C(=O)Nc2cc(C(=O)O)cc(C(=O)Nc3ccc(S(=O)(=O)O)c4cc(S(=O)(=O)O)cc(S(=O)(=O)O)c34)c2)c1)Nc1cc(C(=O)Nc2cc(C(=O)O)cc(C(=O)Nc3ccc(S(=O)(=O)O)c4cc(S(=O)(=O)O)cc(S(=O)(=O)O)c34)c2)cc(C(=O)Nc2cc(C(=O)O)cc(C(=O)Nc3ccc(S(=O)(=O)O)c4cc(S(=O)(=O)O)cc(S(=O)(=O)O)c34)c2)c1 [3,3',3",3'"-{Ureylenebis[s-phenenylbis(carbonylimino]}tetrakis[5-(4,6,8-trisulfo-1-naphthyl)carbamoyl]benzoic acid dodecasodium salt] |  | +7 Wells | +2 Wells | +5 Wells | -90% | -94% | -89% |  |  |
| Cc1ccc(C(=O)Nc2ccc(S(=O)(=O)O)c3cc(S(=O)(=O)O)cc(S(=O)(=O)O)c23)cc1NC(=O)c1cccc(NC(=O)Nc2cccc(C(=O)Nc3cc(C(=O)Nc4ccc(S(=O)(=O)O)c5cc(S(=O)(=O)O)cc(S(=O)(=O)O)c45)ccc3C)c2)c1 [Suramin] | competitive inhibitor of the complement system |  |  |  |  |  |  | used with success |  |
| NC[C@H]1CC[C@H](C(=O)O)CC1 [tranexamic acid] |  |  |  |  |  |  |  | used with success |  |
